Target: p97 (valosin containing protein, VCP, cdc48) (Homo sapiens, UniProt P55072)
Assay: p97 ATPase inhibition assay
Assay type: biochemical

p97 (valosin containing protein, VCP, cdc48), sequence (P55072 2-806): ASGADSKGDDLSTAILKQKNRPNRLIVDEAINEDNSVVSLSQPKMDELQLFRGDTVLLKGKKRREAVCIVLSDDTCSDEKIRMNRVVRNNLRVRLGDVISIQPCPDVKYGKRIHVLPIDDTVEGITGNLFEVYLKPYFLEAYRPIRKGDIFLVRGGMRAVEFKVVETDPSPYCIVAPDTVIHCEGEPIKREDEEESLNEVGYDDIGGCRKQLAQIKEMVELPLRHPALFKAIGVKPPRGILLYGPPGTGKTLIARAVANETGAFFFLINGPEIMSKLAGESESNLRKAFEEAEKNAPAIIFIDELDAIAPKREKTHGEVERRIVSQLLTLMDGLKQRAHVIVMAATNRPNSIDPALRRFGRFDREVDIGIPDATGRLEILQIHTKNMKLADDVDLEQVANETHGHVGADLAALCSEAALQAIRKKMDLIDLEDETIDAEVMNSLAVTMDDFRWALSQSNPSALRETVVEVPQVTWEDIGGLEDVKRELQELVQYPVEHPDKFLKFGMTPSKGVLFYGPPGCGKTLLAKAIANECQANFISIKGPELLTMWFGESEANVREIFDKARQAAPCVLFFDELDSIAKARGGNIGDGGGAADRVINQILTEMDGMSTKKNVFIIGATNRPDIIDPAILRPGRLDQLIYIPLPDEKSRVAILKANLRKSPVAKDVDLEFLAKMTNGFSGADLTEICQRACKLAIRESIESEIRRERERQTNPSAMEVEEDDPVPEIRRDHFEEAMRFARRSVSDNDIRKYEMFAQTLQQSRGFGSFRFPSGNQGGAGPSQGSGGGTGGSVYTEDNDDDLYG

`C=C1OC(=O)C2(C1=O)[C@H](/C=C/C=C/CCC)C=C[C@@H](O)[C@@H]2O` (stereo partly shown) [compound 2, oxaspirol B] was tested. Which IC50 did it give?
Its IC50 is 31.2 ± 3 µM.
